According to patent US9499550B2 (BRISTOL-MYERS SQUIBB COMPANY, priority 2012, dated 2016):
Like-named read-outs stand apart in the source and are kept apart here.

What was measured:
[1] = system: HCV genotype 1a (H77 strain) replicon in HUH-7 cells; assay: HCV replicon luciferase reporter assay, genotype 1a; assay type: cell-based; conditions: Hepatitis C virus, Huh-7, 72 h, 3 days incubation, read-out: LE_1a (EC50, range)
How it was run: (§1)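 Replicon inhibition for both genotypes was measured as Renilla luciferase signal (EnduRen, 7.5 μM final, 2 h) after 3-day, 37° C exposure of replicon-bearing HUH-7 cells in 4% FCS DMEM, 0.5% DMSO. The 1b construct carries S1179I; the 1a H77 construct carries P1496L and S2204I. Twenty-point, 3-fold dilutions were fitted four-parametrically for EC50, and CC50 was taken from multiplexed Cell Titer-Blue.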

[2] = system: HCV genotype 1b (Con1) replicon in HUH-7 cells; assay: HCV replicon luciferase reporter assay, genotype 1b; assay type: cell-based; conditions: Hepatitis C virus, Huh-7, 72 h, 3 days incubation, read-out: LE_1b (EC50, range)
How it was run: as §1

[3] = HCV genotype 1a replicon luciferase
[4] = HCV genotype 1b replicon luciferase
[5] = HCV genotype 1a replicon luciferase assay, range class
[6] = HCV genotype 1b replicon luciferase assay, range class

SMILES	EC50 [1, 3] [nM]	EC50 [2, 4] [nM]	EC50 [1, 5] [nM]	EC50 [2, 6] [nM]
CC[C@@H]1C[C@H](C)CC/C=C\[C@@H]2C[C@@]2(C(=O)NS(=O)(=O)C2CC2)NC(=O)[C@@H]2C[C@@H](Oc3ncnc4cc(OC)ccc34)CN2C(=O)[C@H]1NC(=O)OC(C)(C)C [Compound 4239, tert-butyl ((2R,6S,7R,9R,13aS,14aR,16aS,Z)-14a-((cyclopropylsulfonyl)carbamoyl)-7-ethyl-2-((7-methoxyquinazolin-4-yl)oxy)-9-methyl-5,16-dioxo-1,2,3,5,6,7,8,9,10,11,13a,14,14a,15,16,16a-hexadecahydrocyclopropa[e]pyrrolo[1,2-a][1,4]diazacyclopentadecin-6-yl)carbamate]	< 5.46	< 5.46	–	–
CC[C@@H]1C[C@H](C)CC/C=C\[C@@H]2C[C@@]2(C(=O)NS(=O)(=O)C2(C)CC2)NC(=O)[C@@H]2C[C@@H](Oc3nc(OC)cc4cc(OC)ccc34)CN2C(=O)[C@H]1NC(=O)OC1(C(F)(F)F)COC1 [Compound 1122, 3-(trifluoromethyl)oxetan-3-yl ((2R,6S,7R,9R,13aS,14aR,16aS,Z)-2-((3,6-dimethoxyisoquinolin-1-yl)oxy)-7-ethyl-9-methyl-14a-(((1-methylcyclopropyl)sulfonyl)carbamoyl)-5,16-dioxo-1,2,3,5,6,7,8,9,10,11,13a,14,14a,15,16,16a-hexadecahydrocyclopropa[e]pyrrolo[1,2-a][1,4]diazacyclopentadecin-6-yl)carbamate]	–	–	< 5.46	< 5.46
COc1ccc2c(O[C@@H]3C[C@H]4C(=O)N[C@]5(C(=O)NS(=O)(=O)C6(C)CC6)C[C@H]5/C=C\CC[C@@H](C)C[C@@H](C)[C@H](NC(=O)c5ccncc5F)C(=O)N4C3)ncc(OC)c2c1 [Compound 4142, (2R,6S,7R,9R,13aS,14aR,16aS,Z)-2-(4,6-dimethoxyisoquinolin-1-yloxy)-6-(3-fluoroisonicotinamido)-7,9-dimethyl-N-(1-methylcyclopropylsulfonyl)-5,16-dioxo-1,2,3,5,6,7,8,9,10,11,13a,14,14a,15,16,16a-hexadecahydrocyclopropa[e]pyrrolo[1,2-a][1,4]diazacyclopentadecine-14a-carboxamide]	< 5.46	< 5.46	–	–
CCOc1cc2ccnc(O[C@@H]3C[C@H]4C(=O)N[C@]5(C(=O)NS(=O)(=O)C6(C)CC6)C[C@H]5/C=C\CC[C@@H](C)C[C@@H](C)[C@H](NC(=O)OC(C)(C)C(C)(F)F)C(=O)N4C3)c2cc1F [Compound 5397, 3,3-difluoro-2-methylbutan-2-yl((2R,6S,7R,9R,13aS,14aR,16aS,Z)-2-((6-ethoxy-7-fluoroisoquinolin-1-yl)oxy)-7,9-dimethyl-14a-(((1-methylcyclopropyl)sulfonyl)carbamoyl)-5,16-dioxo-1,2,3,5,6,7,8,9,10,11,13a,14,14a,15,16,16a-hexadecahydrocyclopropa[e]pyrrolo[1,2-a][1,4]diazacyclopentadecin-6-yl)carbamate]	1.01 to 5	0.51 to 1	–	–
C[C@@H]1CC/C=C\[C@@H]2C[C@@]2(C(=O)NS(=O)(=O)C2(C)CC2)NC(=O)[C@@H]2C[C@@H](Oc3nccc4c5c(ccc34)OCCO5)CN2C(=O)[C@@H](NC(=O)O[C@@H]2C[C@@H]3C[C@@H]3C2)[C@H](C)C1 [Compound 5249, (1R,3r,5 S)-bicyclo[3.1.0]hexan-3-yl((2R,6S,7R,9R,13aS,14aR,16aS,Z)-2-((2,3-dihydro-[1,4]dioxino[2,3-f]isoquinolin-7-yl)oxy)-7,9-dimethyl-14a-(((1-methylcyclopropyl)sulfonyl)carbamoyl)-5,16-dioxo-1,2,3,5,6,7,8,9,10,11,13a,14,14a,15,16,16a-hexadecahydrocyclopropa[e]pyrrolo[1,2-a][1,4]diazacyclopentadecin-6-yl)carbamate]	< 5.46	< 5.46	–	–
COc1ccc2c(O[C@@H]3C[C@H]4C(=O)N[C@]5(C(=O)NS(=O)(=O)C6CC6)C[C@H]5/C=C\CC[C@H](C)C[C@@H](C)[C@H](NC(=O)O[C@@H]5C[C@@H]6C[C@@H]6C5)C(=O)N4C3)nc(-c3ccc(OC(C)C)c(F)c3)cc2c1 [Compound 3069, (1R,3r,5S)-bicyclo[3.1.0]hexan-3-yl((2R,6S,7R,9S,13aS,14aR,16aS,Z)-14a-((cyclopropylsulfonyl)carbamoyl)-2-((3-(3-fluoro-4-isopropoxyphenyl)-6-methoxyisoquinolin-1-yl)oxy)-7,9-dimethyl-5,16-dioxo-1,2,3,5,6,7,8,9,10,11,13a,14,14a,15,16,16a-hexadecahydrocyclopropa[e]pyrrolo[1,2-a][1,4]diazacyclopentadecin-6-yl)carbamate]	–	–	4.82 to 103	< 5.46
CC[C@@H]1C[C@H](C)CC/C=C\[C@@H]2C[C@@]2(C(=O)NS(=O)(=O)C2(C)CC2)NC(=O)[C@@H]2C[C@@H](Oc3ncc(OC)c4cc(N(C)C)ccc34)CN2C(=O)[C@H]1NC(=O)OC(C)(C)C(F)(F)F [Compound 3208, 1,1,1-trifluoro-2-methylpropan-2-yl((2R,6S,7R,9R,13aS,14aR,16aS,Z)-2-((6-(dimethylamino)-4-methoxyisoquinolin-1-yl)oxy)-7-ethyl-9-methyl-14a-(((1-methylcyclopropyl)sulfonyl)carbamoyl)-5,16-dioxo-1,2,3,5,6,7,8,9,10,11,13a,14,14a,15,16,16a-hexadecahydrocyclopropa[e]pyrrolo[1,2-a][1,4]diazacyclopentadecin-6-yl)carbamate]	1.01 to 5	0.51 to 1	–	–
C[C@@H]1CC/C=C\[C@@H]2C[C@@]2(C(=O)NS(=O)(=O)C2(C)CC2)NC(=O)[C@@H]2C[C@@H](Oc3ncc(N4CCOCC4)c4ccccc34)CN2C(=O)[C@@H](NC(=O)OC(C)(C)C(C)(F)F)[C@H](C)C1 [Compound 5459, 3,3-difluoro-2-methylbutan-2-yl((2R,6S,7R,9R,13aS,14aR,16aS,Z)-7,9-dimethyl-14a-(((1-methylcyclopropyl)sulfonyl)carbamoyl)-2-((4-morpholinoisoquinolin-1-yl)oxy)-5,16-dioxo-1,2,3,5,6,7,8,9,10,11,13a,14,14a,15,16,16a-hexadecahydrocyclopropa[e]pyrrolo[1,2-a][1,4]diazacyclopentadecin-6-yl)carbamate]	1.01 to 5	1.01 to 5	–	–
COc1cnc(O[C@@H]2C[C@H]3C(=O)N[C@]4(C(=O)NS(=O)(=O)C5(CF)CC5)C[C@H]4/C=C\CC[C@@H](C)C[C@@H](C)[C@H](NC(=O)OC(C)(C)C(C)(F)F)C(=O)N3C2)c2ccccc12 [Compound 1043, 3,3-difluoro-2-methylbutan-2-yl((2R,6S,7R,9R,13aS,14aR,16aS,Z)-14a-(((1-(fluoromethyl)cyclopropyl)sulfonyl)carbamoyl)-2-((4-methoxyisoquinolin-1-yl)oxy)-7,9-dimethyl-5,16-dioxo-1,2,3,5,6,7,8,9,10,11,13a,14,14a,15,16,16a-hexadecahydrocyclopropa[e]pyrrolo[1,2-a][1,4]diazacyclopentadecin-6-yl)carbamate]	–	–	< 5.46	< 5.46
COc1cc(F)cc2c(O[C@@H]3C[C@H]4C(=O)N[C@]5(C(=O)NS(=O)(=O)C6(C)CC6)C[C@H]5/C=C\CC[C@@H](C)C[C@@H](C)[C@H](NC(=O)OC(C)(C)C(F)(F)F)C(=O)N4C3)nccc12 [Compound 3156, 1,1,1-trifluoro-2-methylpropan-2-yl((2R,6S,7R,9R,13aS,14aR,16aS,Z)-2-((7-fluoro-5-methoxyisoquinolin-1-yl)oxy)-7,9-dimethyl-14a-(((1-methylcyclopropyl)sulfonyl)carbamoyl)-5,16-dioxo-1,2,3,5,6,7,8,9,10,11,13a,14,14a,15,16,16a-hexadecahydrocyclopropa[e]pyrrolo[1,2-a][1,4]diazacyclopentadecin-6-yl)carbamate]	–	–	< 5.46	< 5.46
COc1ccc2c(O[C@@H]3C[C@H]4C(=O)N[C@]5(C(=O)NS(=O)(=O)C6CC6)C[C@H]5/C=C\CC[C@H](C)C[C@@H](C)[C@H](NC(=O)OC(C)(C)C)C(=O)N4C3)ncnc2c1 [Compound 4033, tert-butyl (2R,6S,7R,9S,13aS,14aR,16aS,Z)-14a-(cyclopropylsulfonylcarbamoyl)-2-(7-methoxyquinazolin-4-yloxy)-7,9-dimethyl-5,16-dioxo-1,2,3,5,6,7,8,9,10,11,13a,14,14a,15,16,16a-hexadecahydrocyclopropa[e]pyrrolo[1,2-a][1,4]diazacyclopentadecin-6-ylcarbamate]	< 5.46	< 5.46	–	–
COc1cc(F)cc2c(O[C@@H]3C[C@H]4C(=O)N[C@]5(C(=O)NS(=O)(=O)C6(C)CC6)C[C@H]5/C=C\CC[C@@H](C)C[C@@H](C)[C@H](NC(=O)OC(C)(C)C)C(=O)N4C3)nccc12 [Compound 3154, tert-butyl ((2R,6S,7R,9R,13aS,14aR,16aS,Z)-2-((7-fluoro-5-methoxyisoquinolin-1-yl)oxy)-7,9-dimethyl-14a-(((1-methylcyclopropyl)sulfonyl)carbamoyl)-5,16-dioxo-1,2,3,5,6,7,8,9,10,11,13a,14,14a,15,16,16a-hexadecahydrocyclopropa[e]pyrrolo[1,2-a][1,4]diazacyclopentadecin-6-yl)carbamate]	–	–	< 5.46	< 5.46
